Earlier results as cited in patent publication US20160206673A1, “Composition and Method for Improving Sexual Performance” (priority 2015, published 2016).

Key:
[1] = tested on: men with erectile dysfunction; conditions: background evidence
[2] = tested on: men with erectile dysfunction; conditions: oral medications

| Compound | effect on sexual function / erectile dysfunction [1] | side effects / safety [1] | duration of erection helping effects [2] |
| --- | --- | --- | --- |
| C[C@]12CC[C@H](O)CC1=CC[C@@H]1[C@@H]2CC[C@]2(C)C(=O)CC[C@@H]12 [DHEA, dehydroepiandrosterone] | increases libido in women and helps erectile dysfunction in men | – | – |
| N=C(N)NCCC[C@H](N)C(=O)O [L-arginine] | improves erectile dysfunction | nausea, cramps and diarrhea | – |
| COC(=O)[C@@H]1[C@H]2C[C@H]3c4[nH]c5ccccc5c4CCN3C[C@@H]2CC[C@@H]1O [Yohimbine] | can improve sexual dysfunction associated with a drug used to treat depression | increased blood pressure, fast or irregular heartbeat, and anxiety | – |
| CCCc1nn(C)c2c(=O)[nH]c(-c3cc(S(=O)(=O)N4CCN(C)CC4)ccc3OCC)nc12 [sildenafil] | – | – | up to eight |
